Article PMC4881598, “Novel Zinc(II) Complexes [Zn(atc-Et)2] and [Zn(atc-Ph)2]: In Vitro and in Vivo Antiproliferative Studies” (International Journal of Molecular Sciences, 2016)
Read-outs that look alike come from different tables or passages of the source.

What was measured:
[1] = tested on: MDA-MB-231 cells (breast adenocarcinoma); experiment: Cytotoxic analysis (IC50) of adherent cell lines, resazurin: MDA-MB-231; format: cell-based; settings: for IC50: MDA-MB-231 tumor cells, 24 h incubation, resazurin, read-out: IC50 ± SD, MDA-MB-231; for SI (selectivity index), MDA-MB-231: IC50 for MRC-5 cells / IC50 for MDA-MB-231 cells
Description: (§1) All adherent cell lines, including healthy lung fibroblast (MRC-5), hepatocellular carcinoma (HepG-2), cervix adenocarcinoma (HeLa), breast adenocarcinoma (MDA-MB-231), prostate carcinoma (DU 145) and suspended chronic myelogenous leukemia (K-562) cells, were cultured in a humidified atmosphere containing 5% CO2 at 37 °C. The cultures were maintained in Dulbecco's Modified Eagle Medium (DMEM) or Roswell Park Memorial Institute (RPMI) 1640 medium (Vitrocell®, Campinas, SP, Brazil) supplemented with 10% fetal bovine serum (FBS), 50 mg/L gentamicin sulfate, and 2 mg/L amphotericin B.
(§2) In these experiments, cells were collected in a solution of trypsin/ethylenediaminetetraacetic acid (EDTA) (Vitrocell®) and centrifuged (252× g for 5 min). The number of cells was counted using a Neubauer chamber (Celeromics, Valencia, Spain) after staining non-viable cells with 0.4% trypan blue solution (Sigma-Aldrich®) via the cell exclusion assay. Then, the cell concentration was adjusted to 7.5 × 10^4 cells/mL in DMEM for tumor cells and MRC-5 cells. Next, a 200 μL suspension was deposited into each well of a 96-well microplate to a cell density of 1.5 × 10^4 cells/well. The cells were incubated at 37 °C in an atmosphere of 5% CO2 for 24 h to allow the cells to attach to the plate. The coordination compounds were solubilized in DMSO to an initial concentration of 10,000 µg/mL. Test solutions of the complexes were prepared to obtain concentrations from 500 to 1.95 μg/mL. The diluted solutions were added to the cells after changing the medium to remove any non-adherent cells, and the cultures were incubated for an additional 24 h. The cytotoxicity of the complexes was determined after incubating the cells in 30 μL of resazurin for approximately 2 h. The measurement was performed using a Synergy H1 microplate reader (BioTek®, Winooski, VT, USA) with excitation and emission filters at wavelengths of 530 and 590 nm, respectively. The assays were performed in three independent experiments.
(§3) The SI of the complexes was calculated as the ratio of the IC50 for healthy MRC-5 cells to the IC50 for tumor cells. […] Substances with SI values >3 are considered promising.

[2] = tested on: K-562 cells (chronic myelogenous leukemia); experiment: Cytotoxic analysis (IC50) of suspended cells, resazurin: K-562; format: cell-based; settings: for IC50: K-562 suspended tumor cells, 24 h incubation, resazurin, read-out: IC50 ± SD, K-562; for SI (selectivity index), K-562: IC50 for MRC-5 cells / IC50 for K-562 cells
Description: as §1
In these experiments, cells were centrifuged (252× g for 5 min), and the number of cells was counted using a Neubauer chamber after staining non-viable cells with 0.4% trypan blue solution (Sigma-Aldrich®) via the cell exclusion assay. Then, the cell concentration was adjusted to 2 × 10^5 cells/mL in RPMI 1640 medium. Next, 100 μL of the suspension was deposited into each well of a 96-well microplate to a final cell density of […] [35]. The complexes were dissolved in DMSO to an initial concentration of 10,000 μg/mL. Test solutions of the complexes were prepared to obtain concentrations from 500 to 1.95 μg/mL. The diluted solutions were added to the cells, and the cultures were incubated for 24 h. The cytotoxicity of the complexes was determined after incubating the cells in 30 μL of resazurin for approximately 5 h. The measurement was performed using a Synergy H1 microplate reader (BioTek®, Winooski, VT, USA) with excitation and emission filters at wavelengths of 530 and 590 nm, respectively. The assays were performed in three independent experiments.
as §3

[3] = tested on: MRC-5 cells (healthy lung fibroblast); experiment: Cytotoxic analysis (IC50) of adherent cell lines, resazurin: MRC-5; format: cell-based; settings: 24 h incubation, read-out: IC50 ± SD, MRC-5
Description: as §1, §2

[4] = tested on: HeLa cells (cervix adenocarcinoma); experiment: Cytotoxic analysis (IC50) of adherent cell lines, resazurin: HeLa; format: cell-based; settings: for IC50: HeLa tumor cells, 24 h incubation, resazurin, read-out: IC50 ± SD, HeLa; for SI (selectivity index), HeLa: IC50 for MRC-5 cells / IC50 for HeLa cells
Description: as §1, §2, §3

BALB/c mice [5] = experiment: Quantification of serum AST and ALT enzymatic activity levels; format: in vivo; settings: ANOVA and Dunnett's test
Description: To analyze whether there were any biochemical changes in the liver of the animals, we quantified the serum AST and ALT enzymatic activity levels in mice after administration of the complexes via gavage before sacrificing, as described above. A total of 500 µL of blood was collected via the submandibular vein. The blood samples were placed in collection tubes, centrifuged at 1097.6× g for 15 min to separate the serum, and stored at −70 °C. The samples were analyzed on the day of collection.
Enzymatic activity measurements were performed using biochemical diagnostic kits from Labtest S.A. (Labtest S.A., Lagoa Santa, MG, Brazil).
Statistical analysis was performed using GraphPad Prism Version 1.5 software via ANOVA and Dunnett’s test, and p < 0.05 was established as the significance level.

[6] = tested on: DU 145 cells (prostate carcinoma); experiment: Cytotoxic analysis (IC50) of adherent cell lines, resazurin: DU 145; format: cell-based; settings: for IC50: DU 145 tumor cells, 24 h incubation, resazurin, read-out: IC50 ± SD, DU 145; for SI (selectivity index), DU 145: IC50 for MRC-5 cells / IC50 for DU 145 cells
Description: as §1, §2, §3

[7] = tested on: HepG2 cells (hepatocellular carcinoma); experiment: Cytotoxic analysis (IC50) of adherent cell lines, resazurin: HepG2; format: cell-based; settings: for IC50: HepG2 tumor cells, 24 h incubation, resazurin, read-out: IC50 ± SD, HepG2; for SI (selectivity index), HepG2: IC50 for MRC-5 cells / IC50 for HepG2 cells
Description: as §1, §2, §3

BALB/c mice [8] = experiment: In vivo acute toxicity assay, single oral dose; settings: single dose 1000 mg/kg body weight via gavage, 14 days, n = 6
Description: Female 16–20-week old BALB/c mice weighing 24–26 g were used after utilizing these animals for the bioavailability experiments. […] The mice were maintained in polycarbonate cages at 23 ± 2 °C, 56% ± 2% humidity at a 12-h light/dark cycle under specific-pathogen-free conditions (in a positive-pressure cabinet), and the animals were provided with food and water ad libitum [36].
The safety profile of the complexes to BALB/c mice was evaluated via acute toxicity assays according to protocols established by the OECD using the classical method to measure the acute toxicity (LD50) of a single oral dose (administered via gavage) of the complexes [26].
Each complex was suspended in a sunflower oil vehicle, and the vehicle was used as a control (control group). The complexes were administered as a single dose at 1000 mg/kg body weight via gavage (n = 6 animals/complex). […] The animals were monitored for 14 days, and behavioral parameters (Hippocratic screening) were evaluated.
At the end of the experiment, the animals were weighed, and blood was collected via the submandibular vein. Subsequently, the animals were euthanized in CO2 chambers, and their organs (heart, lungs, right and left kidneys, spleen and liver) were surgically removed, weighed and macroscopically analyzed. […]

Artemia salina L. [9] = experiment: Artemia salina L. toxicity assay; format: in vivo; settings: ratio of LC50 values to cisplatin
Description: To determine toxicity of the Zn^II complexes to brine shrimp, 25 mg of egg (Natal, RN, Brazil) was incubated in a beaker (2000 mL) containing artificial salt water at a temperature ranging from 20 to 30 °C. The artificial salt water consisted of 23 g NaCl, 11 g MgCl2·6H2O, 4 g Na2SO4, 1.3 g CaCl2·H2O, and 0.7 g KCl in 1000 mL distilled water. The pH was adjusted to 9.0 using 5N NaOH to avoid risk of death to the Artemia larvae (nauplii) due to a low pH during incubation.
After 24 hours, 0.6 g of Saccharomyces cerevisiae was added to the beaker per liter of salt water to feed the nauplii; after the eggs were incubated for 48 h, the nauplii were extracted for the experiments.
A 120 µL suspension of 10-15 nauplii was added to each well of a 96-well microplate, including the control wells. The compounds were solubilized in DMSO at 15,000 µg/mL and serially diluted in a separate 96-well microplate. The tested concentrations ranged from 1500 to 5.85 µg/mL. After incubation for 24 h, the plates were examined under a Lupa binocular microscope (X3.0), and the numbers of live nauplii in each well were counted to determine the LC50 [21]. The assays were performed in three independent experiments.

[10] = In vivo oral bioavailability test, plasma metal quantified by ICP-OES / ICP-MS; settings: BALB/c mice, 300 mg/Kg oral gavage
Description: Female 4–8-week old BALB/c mice weighing 15–20 g were purchased from the central animal facilities of Campinas State University (UNICAMP, Campinas, SP, Brazil). The mice were maintained in polycarbonate cages at 23 ± 2 °C, 56% ± 2% humidity at a 12 h light/dark cycle under specific pathogen-free conditions (in a positive-pressure cabinet), and the animals were provided with food and water ad libitum. […] The animals (n = 2 animals/complex) received a dose of 300 mg/Kg body weight via oral gavage. At 20 min, 1 h, 2 h, and 4 h after drug administration, blood was drawn from two animals via the retro-orbital veins, draining the submandibular vein and the face of the mice to the point at which the origins of the jugular vein join so that drops of blood exude from the point of penetration. The plasma was separated and stored at −70 °C for quantification.
The metal ion (Zn) concentration was quantified via ICP-OES using a Thermo Scientific Model 6300 system (Thermo Scientific®, San Diego, CA, USA). Samples (50 µL) were diluted 1:100 with a solution containing 0.01% (v/v) Triton X-100 and 0.5% (v/v) nitric acid. During the experiment, the recovery validation test was performed, and this test produced a result of 94%–104% recovery.
For digestion, 50 µL of plasma sample and 5950 µL of double-distilled 20% (v/v) nitric acid were used. The samples were digested in a microwave (Berghof speedwave D 72800, Goshen, NY, USA), reaching a temperature of 170 °C. During the experiment, the recovery validation test was performed, and this test produced a result of 95%–105% recovery.

[11] = Solubility in solvents and vehicle (qualitative); format: physicochemical
Artemia salina L. [12] = tested on: Artemia salina L.; set-up: method as in Freitas et al. (2011) [25]; settings: ref Freitas et al. (2011) [25]; read-out: LC50 against Artemia salina L.; cited from earlier work
[13] = Homo sapiens, MRC5, normal MRC-5 cells

Molecule	IC50 [1] [µM]	IC50 [2] [µM]	IC50 ([3]; normal MRC-5 cells) [µM]	IC50 [4] [µM]	IC50 [6] [µM]	IC50 [7] [µM]	SI (selectivity index), MDA-MB-231 [1]	SI (selectivity index), DU 145 [6]	SI (selectivity index), HepG2 [7]	IC50 ([1]; Homo sapiens) [µM]	IC50 ([2]; Homo sapiens, K562) [µM]	IC50 [3, 13] [µM]	IC50 ([4]; Homo sapiens) [µM]	IC50 ([6]; Homo sapiens) [µM]	IC50 ([7]; Homo sapiens) [µM]	SI (selectivity index), K-562 [2]	SI (selectivity index), HeLa [4]	also measured
N.N.[Cl][Pt][Cl] [Cisplatin, reference compound]	143 ± 3.3	75.4 ± 6	46.2 ± 4.9	85 ± 10.1	56.5 ± 6.8	60.3 ± 15.1	–	–	–	–	–	–	–	–	–	–	–	serum AST and ALT enzymatic activity levels versus control group (BALB/c mice [5]): no significant difference
CC(=NN=C([S-])Nc1ccccc1)c1ccccn1.CC(=NN=C([S-])Nc1ccccc1)c1ccccn1.[Zn+2] [Complex 2, [Zn(atc-Ph)2]]	–	–	–	–	–	–	2.2	0.3	3.6	–	–	–	–	–	–	–	–	mortality (BALB/c mice [8]): no mortality; fold lower toxicity in Artemia salina L. relative to cisplatin (Artemia salina L. [9]): 5.7 fold; maximum plasma concentration (Cmax) [10]: 1191.95 ng/mL; plasma concentration at 20 min ([10]; 20 min, Zn by ICP-OES, relative to control sample): 727.83 ng/mL; plasma concentration at 1 h ([10]; 1 h, Zn by ICP-OES, relative to control sample): 1023.55 ng/mL; plasma concentration at 2 h ([10]; 2 h, Zn by ICP-OES, relative to control sample): 1191.95 ng/mL; plasma concentration at 4 h ([10]; 4 h, Zn by ICP-OES, relative to control sample): 624.70 ng/mL; solubility in organic solvents [11]: reasonably soluble only in dimethyl sulfoxide (DMSO)
CCNC(=S)N/N=C(\C)c1ccccn1 [Hatc-Et]	–	–	–	–	–	–	–	–	–	904 ± 65.3	420.3 ± 3.7	9	746 ± 23.2	532 ± 12.6	553 ± 45	–	–	–
C/C(=N\NC(=S)Nc1ccccc1)c1ccccn1 [Hatc-Ph]	–	–	–	–	–	–	0.3	0.5	0.2	24.3 ± 5	11.1 ± 0.6	7.4	25 ± 0.2	15.1 ± 2.1	36.3 ± 1.5	0.7	0.3	–
O.O.O.O.O.O.[Cl][Zn][Cl] [ZnCl2·6H2O]	475 ± 64.3	1090 ± 73.8	240 ± 16.8	864 ± 14	383 ± 7.8	698 ± 10.9	0.5	0.6	0.3	–	–	–	–	–	–	0.2	0.3	–
perchlorate compound of bis(isoniazid) Zn^II hexahydrate	–	–	–	–	–	–	–	–	–	–	–	–	–	–	–	–	–	LC50 (Artemia salina L. [12]): 268 µM
